By inhibition is commonly meant the relative decrease from the control value, in per cent.

The values below come from patent publication US9096591B2, “Tetracyclic compounds” (Medivation Technologies, Inc., priority 2007, dated 2015).

Assay [1] deals with T1, human recombinant serotonin (5-Hydroxytryptamine) 5-HT2C receptor (Homo sapiens, UniProt P28335).
T1 construct: expressed in transfected cells; host or cells: CHO-K1 cells
T1 sequence (P28335 33-458): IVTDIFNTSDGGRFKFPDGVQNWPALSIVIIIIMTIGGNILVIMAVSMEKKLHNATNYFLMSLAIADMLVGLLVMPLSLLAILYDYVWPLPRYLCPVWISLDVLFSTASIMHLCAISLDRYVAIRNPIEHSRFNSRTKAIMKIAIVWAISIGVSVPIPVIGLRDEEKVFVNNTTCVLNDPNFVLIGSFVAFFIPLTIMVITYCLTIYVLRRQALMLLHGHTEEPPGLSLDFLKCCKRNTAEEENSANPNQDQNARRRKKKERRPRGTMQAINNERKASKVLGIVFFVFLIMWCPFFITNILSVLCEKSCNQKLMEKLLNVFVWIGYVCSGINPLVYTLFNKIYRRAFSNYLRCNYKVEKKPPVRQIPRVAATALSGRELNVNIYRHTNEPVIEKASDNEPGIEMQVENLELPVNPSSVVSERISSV
In words: Serotonin 5-HT2C radioligand binding ([3H]Mesulergine). Further details: Inhibition of ligand binding, Ser. 5-HT2C: concentration or dose not given beside the values. Particulars: percent inhibition of specific binding. The method, then: Compounds of the invention were incubated with 1 nM [^3H]Mesulergine for 60 minutes at 25° C. Non-specific binding was estimated in the presence of 1 μM Mianserin. Receptor proteins were filtered and washed, the filters were then counted to determine [^3H]Mesulergine specifically bound. […] Biochemical assay results are presented as the percent inhibition of specific binding in Table 6.

Assay [2] addresses T2, human recombinant histamine H1 receptor (Homo sapiens, UniProt P35367).
T2 construct: expressed in transfected cells; host or cells: CHO cells
Description: Histamine H1 radioligand binding ([3H]Pyrilamine). Particulars: percent inhibition of specific binding; screened at 1 μM; read-out: Inhibition of ligand binding, Hist. H1. The procedure, abridged:
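Receptor expressed in CHO cells, assayed in 50 mM Tris-HCl pH 7.4 with 2 mM MgCl2, 100 mM NaCl, 250 mM sucrose. Compounds tested at 1 μM in 1% DMSO; non-specific binding set with 1 μM pyrilamine. Filter-bound radioactivity counted; values are percent inhibition of specific binding.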

Assay [3] concerns the target T3, human recombinant adrenergic α2B receptor (Homo sapiens, UniProt P18089).
T3 construct: expressed in transfected cells; host or cells: CHO-K1 cells
T3 sequence (P18089 1-450): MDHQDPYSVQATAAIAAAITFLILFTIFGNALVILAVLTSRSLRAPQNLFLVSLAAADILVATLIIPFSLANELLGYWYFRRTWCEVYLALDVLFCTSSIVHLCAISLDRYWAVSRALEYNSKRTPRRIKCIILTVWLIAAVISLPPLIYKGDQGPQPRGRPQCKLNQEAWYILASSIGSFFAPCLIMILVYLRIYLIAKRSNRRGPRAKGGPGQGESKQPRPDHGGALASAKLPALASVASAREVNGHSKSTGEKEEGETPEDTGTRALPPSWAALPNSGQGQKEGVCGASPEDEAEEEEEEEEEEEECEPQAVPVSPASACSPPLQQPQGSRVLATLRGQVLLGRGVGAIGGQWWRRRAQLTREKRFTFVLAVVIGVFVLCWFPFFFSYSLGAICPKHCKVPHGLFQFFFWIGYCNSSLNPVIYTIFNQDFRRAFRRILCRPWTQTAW
Description: Adrenergic α2B radioligand binding ([3H]Rauwolscine). Further details: Inhibition of ligand binding, Adren. alpha2B: concentration or dose not given beside the values. Particulars: percent inhibition of specific binding. The procedure, abridged:
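Membranes from CHO-K1 cells expressing the receptor, in 50 mM Tris-HCl pH 7.4 with 12.5 mM MgCl2, 1 mM EDTA, 0.2% BSA, incubated with compounds and 2.5 nM [3H]Rauwolscine for 60 minutes at 25 °C.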

Assay [4] deals with T4, human recombinant serotonin (5-Hydroxytryptamine) 5-HT6 receptor (Homo sapiens, UniProt P50406).
T4 construct: expressed in transfected cells; host or cells: human HeLa cells
T4 sequence (P50406 whole entry): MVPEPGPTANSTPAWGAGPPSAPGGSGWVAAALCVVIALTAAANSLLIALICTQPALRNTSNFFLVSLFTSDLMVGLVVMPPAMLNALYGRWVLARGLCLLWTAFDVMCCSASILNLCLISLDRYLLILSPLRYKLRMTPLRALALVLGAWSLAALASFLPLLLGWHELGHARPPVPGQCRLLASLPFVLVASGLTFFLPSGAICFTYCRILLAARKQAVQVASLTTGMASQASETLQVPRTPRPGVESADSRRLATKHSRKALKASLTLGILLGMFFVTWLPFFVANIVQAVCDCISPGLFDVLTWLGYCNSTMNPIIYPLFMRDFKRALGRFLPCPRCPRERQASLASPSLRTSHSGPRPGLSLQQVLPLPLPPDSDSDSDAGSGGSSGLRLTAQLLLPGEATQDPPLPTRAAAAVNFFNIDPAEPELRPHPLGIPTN
Description: Serotonin 5-HT6 radioligand binding ([3H]LSD). The arrangement: Inhibition of ligand binding, Ser. 5-HT6: concentration or dose not given beside the values. Particulars: percent inhibition of specific binding. An excerpt: Receptor proteins were filtered and washed, the filters were then counted to determine [3H]LSD specifically bound. […] Biochemical assay results are presented as the percent inhibition of specific binding in Table 6.

Each structure is given as a SMILES string.

T2 sequence (P35367 whole entry): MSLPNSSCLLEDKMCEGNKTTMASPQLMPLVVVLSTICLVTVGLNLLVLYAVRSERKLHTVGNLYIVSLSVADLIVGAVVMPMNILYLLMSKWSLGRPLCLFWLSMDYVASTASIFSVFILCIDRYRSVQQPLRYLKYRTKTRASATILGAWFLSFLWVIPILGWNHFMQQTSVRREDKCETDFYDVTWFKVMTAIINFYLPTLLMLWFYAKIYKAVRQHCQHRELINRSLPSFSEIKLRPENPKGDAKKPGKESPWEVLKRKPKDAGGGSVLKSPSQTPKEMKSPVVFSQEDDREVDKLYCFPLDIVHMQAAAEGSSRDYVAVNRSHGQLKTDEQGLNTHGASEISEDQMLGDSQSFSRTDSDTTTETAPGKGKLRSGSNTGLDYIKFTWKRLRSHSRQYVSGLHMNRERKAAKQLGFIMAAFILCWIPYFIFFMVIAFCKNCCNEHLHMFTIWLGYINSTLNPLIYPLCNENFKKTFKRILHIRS

With `CN1CCc2c(c3cc(Cl)c(F)cc3n2CCc2ccc(C(F)(F)F)nc2)C1` [Compound 343], the “Inhibition of ligand binding, Ser. 5-HT2C” value (“Inhibition … Ser. 5-HT2C” below) in assay [1] is recorded as 69%. Besides, the inhibition at 1 µM in assay [2] is 98%. Further, the “Inhibition of ligand binding, Adren. alpha2B” value (“Inhibition … Adren. alpha2B” below) in assay [3] came out at 117%. Further, the “Inhibition of ligand binding, Ser. 5-HT6” value in assay [4] was found to be 57%.

Regarding `CN1CCc2c(c3cc(Cl)ccc3n2CCn2cccc2)C1` [Compound 349, 8-Chloro-2-methyl-5-(2-pyrrol-1-yl-ethyl)-2,3,4,5-tetrahydro-1H-pyrido[4,3-b]indole], the “Inhibition … Ser. 5-HT2C” value in assay [1] stood at 98%. Moreover, the inhibition at 1 µM in assay [2] came to 111%. For the same compound, the “Inhibition … Adren. alpha2B” value in assay [3] is given as 111%. The “Inhibition of ligand binding, Ser. 5-HT6” value in assay [4] came to 101%.

For the compound `OC1CCC(N2CCc3c(c4cc(Cl)ccc4n3CCc3ccc(C(F)(F)F)nc3)C2)C1` (stereo not shown) [Compound 351, 3-(8-chloro-5-(2-(6-(trifluoromethyl)pyridin-3-yl)ethyl)-3,4-dihydro-1H-pyrido[4,3-b]indol-2(5H)-yl)cyclopentanol], the “Inhibition … Ser. 5-HT2C” value in assay [1] is reported as 26%. Besides, the inhibition at 1 µM in assay [2] turned out to be 74%. In addition, in assay [3], the “Inhibition … Adren. alpha2B” value is listed as 43%. In assay [4], the “Inhibition of ligand binding, Ser. 5-HT6” value is −4%.

For the compound `Cc1ccc2c(n1)c1c(n2CCc2ccc(C(F)(F)F)nc2)CCN(C)C1` [Compound 353, 9-aza-2,8-dimethyl-5-(2-(6-(trifluoromethyl)pyridin-3-yl)ethyl)-2,3,4,5-tetrahydro-1H-pyrido[4,3-b]indole], in assay [1], the “Inhibition … Ser. 5-HT2C” value was −15%. The inhibition at 1 µM in assay [2] came out at 10%. The “Inhibition … Adren. alpha2B” value in assay [3] is 11%. Besides, in assay [4], the “Inhibition of ligand binding, Ser. 5-HT6” value came to 0%.

Turning to `CCc1ccc2c(c1)c1c(n2CCc2ccc(C)nc2)CCN(C)C1` [Compound 357, 8-Ethyl-2-methyl-5-[2-(6-methyl-pyridin-3-yl)-ethyl]-2,3,4,5-tetrahydro-1H-pyrido[4,3-b]indole], the “Inhibition … Ser. 5-HT2C” value in assay [1] was determined as 67%. Also, in assay [2], the inhibition at 1 µM came out at 101%. The “Inhibition … Adren. alpha2B” value in assay [3] is given as 106%. Also, the “Inhibition of ligand binding, Ser. 5-HT6” value in assay [4] came out at 85%.

Consider `CCc1ccc2c(c1)c1c(n2CCc2ccc(C(F)(F)F)nc2)CCN(C)C1` [Compound 358, 8-Ethyl-2-methyl-5-[2-(6-trifluoromethyl-pyridin-3-yl)-ethyl]-2,3,4,5-tetrahydro-1H-pyrido[4,3-b]indole], for which, in assay [1], the “Inhibition … Ser. 5-HT2C” value was 78%. In addition, the inhibition at 1 µM in assay [2] came to 94%. Besides, in assay [3], the “Inhibition … Adren. alpha2B” value worked out at 109%. In addition, the “Inhibition of ligand binding, Ser. 5-HT6” value in assay [4] came out at 65%.

For the compound `CCc1ccc(CCn2c3c(c4cc(C)ccc42)CN(C)CC3)cn1` [Compound 359, 5-[2-(6-Ethyl-pyridin-3-yl)-ethyl]-2,8-dimethyl-2,3,4,5-tetrahydro-1H-pyrido[4,3-b]indole], in assay [1], the “Inhibition … Ser. 5-HT2C” value turned out to be 91%. In addition, the inhibition at 1 µM in assay [2] was found to be 99%. In assay [3], the “Inhibition … Adren. alpha2B” value is listed as 90%. The “Inhibition of ligand binding, Ser. 5-HT6” value in assay [4] is 95%.

Take `Cc1ccc2c(c1)c1c(n2CCc2ccc(C(C)C)nc2)CCN(C)C1` [Compound 360, 5-[2-(6-Isopropyl-pyridin-3-yl)-ethyl]-2,8-dimethyl-2,3,4,5-tetrahydro-1H-pyrido[4,3-b]indole]: the “Inhibition … Ser. 5-HT2C” value in assay [1] came out at 83%. For the same compound, the inhibition at 1 µM in assay [2] came out at 101%. The “Inhibition … Adren. alpha2B” value in assay [3] is given as 115%. Also, the “Inhibition of ligand binding, Ser. 5-HT6” value in assay [4] came to 91%.

For the compound `Cc1ncc(CCn2c3c(c4cc(Cl)ccc42)CN(C)CC3)cn1` [Compound 361, 8-Chloro-2-methyl-5-[2-(2-methyl-pyrimidin-5-yl)-ethyl]-2,3,4,5-tetrahydro-1H-pyrido[4,3-b]indole], the “Inhibition … Ser. 5-HT2C” value in assay [1] is 58%. The inhibition at 1 µM in assay [2] was 106%. Moreover, the “Inhibition … Adren. alpha2B” value in assay [3] was 94%. Also, the “Inhibition of ligand binding, Ser. 5-HT6” value in assay [4] came out at 76%.

Take `CCc1ccc2c(c1)c1c(n2CCc2cnc(C)nc2)CCN(C)C1` [Compound 362, 8-Ethyl-2-methyl-5-[2-(2-methyl-pyrimidin-5-yl)-ethyl]-2,3,4,5-tetrahydro-1H-pyrido[4,3-b]indole]: the “Inhibition … Ser. 5-HT2C” value in assay [1] is listed as 40%. In addition, the inhibition at 1 µM in assay [2] worked out at 98%. Also, in assay [3], the “Inhibition … Adren. alpha2B” value is recorded as 82%. Also, the “Inhibition of ligand binding, Ser. 5-HT6” value in assay [4] turned out to be 61%.

Regarding `Cc1cnc(CCn2c3c(c4cc(Cl)ccc42)CN(C)CC3)cn1` [Compound 363, 8-Chloro-2-methyl-5-[2-(5-methyl-pyrazin-2-yl)-ethyl]-2,3,4,5-tetrahydro-1H-pyrido[4,3-b]indole], the “Inhibition … Ser. 5-HT2C” value in assay [1] came out at 66%. In assay [2], the inhibition at 1 µM was found to be 95%. Also, in assay [3], the “Inhibition … Adren. alpha2B” value is 104%. In addition, in assay [4], the “Inhibition of ligand binding, Ser. 5-HT6” value was 83%.

Take `CCc1ccc2c(c1)c1c(n2CCc2cnc(C)cn2)CCN(C)C1` [Compound 364, 8-Ethyl-2-methyl-5-[2-(5-methyl-pyrazin-2-yl)-ethyl]-2,3,4,5-tetrahydro-1H-pyrido[4,3-b]indole]: in assay [1], the “Inhibition … Ser. 5-HT2C” value is reported as 81%. Also, the inhibition at 1 µM in assay [2] is 87%. For the same compound, in assay [3], the “Inhibition … Adren. alpha2B” value is 109%. Further, the “Inhibition of ligand binding, Ser. 5-HT6” value in assay [4] was found to be 70%.

As for `Cc1cnc(CCn2c3c(c4cc(C(C)C)ccc42)CN(C)CC3)cn1` [Compound 369, 8-Isopropyl-2-methyl-5-[2-(5-methyl-pyrazin-2-yl)-ethyl]-2,3,4,5-tetrahydro-1H-pyrido[4,3-b]indole], the “Inhibition … Ser. 5-HT2C” value in assay [1] came out at 57%. In addition, in assay [2], the inhibition at 1 µM was determined as 39%. Further, the “Inhibition … Adren. alpha2B” value in assay [3] is on record as 105%. In addition, the “Inhibition of ligand binding, Ser. 5-HT6” value in assay [4] amounted to 23%.

For `Cc1ncc(CCn2c3c(c4cc(C(C)C)ccc42)CN(C)CC3)cn1` [Compound 370, 8-Isopropyl-2-methyl-5-[2-(2-methyl-pyrimidin-5-yl)-ethyl]-2,3,4,5-tetrahydro-1H-pyrido[4,3-b]indole], the “Inhibition … Ser. 5-HT2C” value in assay [1] worked out at 40%. Moreover, the inhibition at 1 µM in assay [2] was 85%. Besides, in assay [3], the “Inhibition … Adren. alpha2B” value is recorded as 87%. In assay [4], the “Inhibition of ligand binding, Ser. 5-HT6” value stood at 64%.

Consider `CCc1ccc(CCn2c3c(c4cc(Cl)ccc42)CN(C)CC3)cn1` [Compound 371, 8-Chloro-5-[2-(6-ethyl-pyridin-3-yl)-ethyl]-2-methyl-2,3,4,5-tetrahydro-1H-pyrido[4,3-b]indole], for which the “Inhibition … Ser. 5-HT2C” value in assay [1] stood at 87%. Besides, the inhibition at 1 µM in assay [2] was determined as 99%. In addition, the “Inhibition … Adren. alpha2B” value in assay [3] turned out to be 98%. The “Inhibition of ligand binding, Ser. 5-HT6” value in assay [4] is reported as 88%.

Turning to `CC(C)c1ccc(CCn2c3c(c4cc(Cl)ccc42)CN(C)CC3)cn1` [Compound 372, 8-Chloro-5-[2-(6-isopropyl-pyridin-3-yl)-ethyl]-2-methyl-2,3,4,5-tetrahydro-1H-pyrido[4,3-b]indole], the “Inhibition … Ser. 5-HT2C” value in assay [1] is 77%. The inhibition at 1 µM in assay [2] came to 101%. In assay [3], the “Inhibition … Adren. alpha2B” value is 110%. Further, in assay [4], the “Inhibition of ligand binding, Ser. 5-HT6” value is listed as 88%.
